Calls of active or inactive are those of the source.
Tests used:
[1] = biological target: T1, Dual specificity protein phosphatase 6 (Rattus norvegicus, UniProt Q64346); experiment: inhibition of rat DUSP6 enzyme activity – biochemical, in vitro, primary screen (AID 425)
T1 sequence (Q64346 whole entry): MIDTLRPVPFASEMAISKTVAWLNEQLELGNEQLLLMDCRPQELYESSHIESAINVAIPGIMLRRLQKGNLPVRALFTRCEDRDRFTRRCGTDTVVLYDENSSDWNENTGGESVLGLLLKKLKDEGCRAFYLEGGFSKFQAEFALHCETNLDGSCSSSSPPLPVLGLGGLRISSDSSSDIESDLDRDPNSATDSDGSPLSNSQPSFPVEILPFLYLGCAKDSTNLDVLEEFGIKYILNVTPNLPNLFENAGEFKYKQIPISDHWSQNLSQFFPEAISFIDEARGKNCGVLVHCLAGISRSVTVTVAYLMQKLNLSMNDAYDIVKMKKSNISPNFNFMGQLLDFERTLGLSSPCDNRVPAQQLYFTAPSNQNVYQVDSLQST

[2] = biological target: Induced myeloid leukemia cell differentiation protein Mcl-1 (Homo sapiens, UniProt Q07820); format: functional
Sequence of Induced myeloid leukemia cell differentiation protein Mcl-1 (Q07820 whole entry): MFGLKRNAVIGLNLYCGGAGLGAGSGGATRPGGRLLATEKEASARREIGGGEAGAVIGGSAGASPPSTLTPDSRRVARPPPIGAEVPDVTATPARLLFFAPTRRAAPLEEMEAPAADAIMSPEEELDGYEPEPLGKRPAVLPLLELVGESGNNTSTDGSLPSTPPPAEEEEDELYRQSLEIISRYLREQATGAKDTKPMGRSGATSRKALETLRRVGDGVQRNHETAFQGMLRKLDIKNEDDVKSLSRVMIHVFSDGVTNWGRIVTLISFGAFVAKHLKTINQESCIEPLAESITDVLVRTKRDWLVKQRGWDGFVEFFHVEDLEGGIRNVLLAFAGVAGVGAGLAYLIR

[3] = biological target: Eukaryotic translation initiation factor 4E (Mus musculus, UniProt P63073); experiment: blockers of eIF4G binding by eIF4E – biochemical, TR-FRET, dose response (AID 855); format: functional;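 further: potency for disrupting eIF4E binding to eIF4GI seen as loss of FRET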
Sequence of Eukaryotic translation initiation factor 4E (P63073 whole entry): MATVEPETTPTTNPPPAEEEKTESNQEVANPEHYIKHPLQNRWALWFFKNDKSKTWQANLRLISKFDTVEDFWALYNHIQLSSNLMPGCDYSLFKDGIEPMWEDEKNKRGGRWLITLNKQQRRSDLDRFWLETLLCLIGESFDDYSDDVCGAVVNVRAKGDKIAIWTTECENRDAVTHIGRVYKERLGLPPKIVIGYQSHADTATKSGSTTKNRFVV

[4] = biological target: Heat shock 70 kDa protein 1A (Homo sapiens, UniProt P0DMV8); experiment: inhibition of Hsp70 binding activity – biochemical, fluorescence polarization, SAR follow-up (AID 1072)
Sequence of Heat shock 70 kDa protein 1A (P0DMV8 whole entry): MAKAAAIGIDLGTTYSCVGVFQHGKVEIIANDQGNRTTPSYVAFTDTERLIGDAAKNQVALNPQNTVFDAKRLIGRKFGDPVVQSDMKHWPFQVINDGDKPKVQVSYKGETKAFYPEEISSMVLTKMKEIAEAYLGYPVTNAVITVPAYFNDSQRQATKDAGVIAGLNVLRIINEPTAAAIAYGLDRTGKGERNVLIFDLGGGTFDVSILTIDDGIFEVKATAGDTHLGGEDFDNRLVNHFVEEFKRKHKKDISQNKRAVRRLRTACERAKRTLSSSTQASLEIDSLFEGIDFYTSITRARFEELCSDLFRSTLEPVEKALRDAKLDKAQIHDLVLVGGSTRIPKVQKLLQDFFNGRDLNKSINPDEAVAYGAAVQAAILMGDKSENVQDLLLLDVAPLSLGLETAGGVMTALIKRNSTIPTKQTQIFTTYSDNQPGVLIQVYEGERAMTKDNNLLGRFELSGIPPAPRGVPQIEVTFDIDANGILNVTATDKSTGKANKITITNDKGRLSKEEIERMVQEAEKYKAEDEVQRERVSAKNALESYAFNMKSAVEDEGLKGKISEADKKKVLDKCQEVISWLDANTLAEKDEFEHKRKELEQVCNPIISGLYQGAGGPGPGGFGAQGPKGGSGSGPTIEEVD

Large T antigen = Large T antigen (Simian virus 40, UniProt P03070); format: functional, Betapolyomavirus macacae;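 further: Confirmatory-stage PubChem screen for compounds that inhibit SV40 T antigen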
Sequence of Large T antigen (P03070 whole entry): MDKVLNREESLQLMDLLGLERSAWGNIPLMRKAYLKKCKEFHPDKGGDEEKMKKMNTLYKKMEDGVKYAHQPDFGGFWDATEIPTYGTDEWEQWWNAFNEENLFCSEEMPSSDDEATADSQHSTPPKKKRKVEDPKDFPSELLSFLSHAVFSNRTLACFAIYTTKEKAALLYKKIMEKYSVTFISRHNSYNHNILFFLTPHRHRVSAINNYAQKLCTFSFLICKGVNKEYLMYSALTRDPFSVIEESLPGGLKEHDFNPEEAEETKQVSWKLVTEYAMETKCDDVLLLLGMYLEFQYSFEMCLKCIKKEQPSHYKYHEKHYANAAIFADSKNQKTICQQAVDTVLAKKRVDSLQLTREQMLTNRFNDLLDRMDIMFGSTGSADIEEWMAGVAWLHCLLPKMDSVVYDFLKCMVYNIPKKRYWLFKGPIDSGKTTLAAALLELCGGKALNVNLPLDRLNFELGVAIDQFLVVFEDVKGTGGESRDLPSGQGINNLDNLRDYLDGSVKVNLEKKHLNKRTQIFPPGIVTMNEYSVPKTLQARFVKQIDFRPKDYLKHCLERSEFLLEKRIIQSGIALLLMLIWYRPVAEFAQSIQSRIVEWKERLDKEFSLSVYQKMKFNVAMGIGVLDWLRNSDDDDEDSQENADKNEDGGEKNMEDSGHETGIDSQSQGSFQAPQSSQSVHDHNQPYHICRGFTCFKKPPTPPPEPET

[5] = biological target: Glyceraldehyde-3-phosphate dehydrogenase (Homo sapiens, UniProt P04406)
Sequence of Glyceraldehyde-3-phosphate dehydrogenase (P04406 whole entry): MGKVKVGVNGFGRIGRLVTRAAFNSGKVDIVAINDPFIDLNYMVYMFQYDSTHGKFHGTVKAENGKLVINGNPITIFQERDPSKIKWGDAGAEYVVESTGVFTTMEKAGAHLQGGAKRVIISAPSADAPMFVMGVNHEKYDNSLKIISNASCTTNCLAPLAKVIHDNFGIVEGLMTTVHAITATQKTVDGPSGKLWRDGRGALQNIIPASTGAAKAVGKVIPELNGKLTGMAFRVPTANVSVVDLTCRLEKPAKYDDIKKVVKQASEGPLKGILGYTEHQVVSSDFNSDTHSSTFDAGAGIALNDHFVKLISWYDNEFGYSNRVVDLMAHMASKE

NS3 = NS3 (Hepatitis C virus, UniProt A3EZJ3); experiment: NS3h DNA-binding inhibition IC50 – biochemical, fluorescence polarization, ChemBridge library, dose response (AID 743264)
Sequence of NS3 (A3EZJ3 whole entry): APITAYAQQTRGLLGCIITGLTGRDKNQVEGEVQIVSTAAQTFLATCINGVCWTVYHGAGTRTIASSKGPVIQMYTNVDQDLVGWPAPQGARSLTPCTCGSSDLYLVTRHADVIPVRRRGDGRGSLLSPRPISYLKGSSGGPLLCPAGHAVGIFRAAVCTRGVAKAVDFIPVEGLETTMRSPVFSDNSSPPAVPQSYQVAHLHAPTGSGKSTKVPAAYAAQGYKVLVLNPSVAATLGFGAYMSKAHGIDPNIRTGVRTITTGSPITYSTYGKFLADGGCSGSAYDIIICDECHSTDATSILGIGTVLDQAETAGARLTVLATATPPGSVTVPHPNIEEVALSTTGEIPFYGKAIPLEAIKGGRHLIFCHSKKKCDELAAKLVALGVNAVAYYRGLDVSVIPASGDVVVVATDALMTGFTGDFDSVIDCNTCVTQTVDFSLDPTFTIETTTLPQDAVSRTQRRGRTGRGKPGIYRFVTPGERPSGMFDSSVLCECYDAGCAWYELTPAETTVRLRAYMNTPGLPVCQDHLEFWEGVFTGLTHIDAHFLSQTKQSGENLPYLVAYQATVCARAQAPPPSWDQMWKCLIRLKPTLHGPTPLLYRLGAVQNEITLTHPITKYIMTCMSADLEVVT

[6] = biological target: Heat shock cognate 71 kDa protein (Homo sapiens, UniProt P11142); experiment: In Vitro Hsc70 Dose Response Fluorescence Polarization Assay. [Related pubchem assays: 1072 ]
Sequence of Heat shock cognate 71 kDa protein (P11142 whole entry): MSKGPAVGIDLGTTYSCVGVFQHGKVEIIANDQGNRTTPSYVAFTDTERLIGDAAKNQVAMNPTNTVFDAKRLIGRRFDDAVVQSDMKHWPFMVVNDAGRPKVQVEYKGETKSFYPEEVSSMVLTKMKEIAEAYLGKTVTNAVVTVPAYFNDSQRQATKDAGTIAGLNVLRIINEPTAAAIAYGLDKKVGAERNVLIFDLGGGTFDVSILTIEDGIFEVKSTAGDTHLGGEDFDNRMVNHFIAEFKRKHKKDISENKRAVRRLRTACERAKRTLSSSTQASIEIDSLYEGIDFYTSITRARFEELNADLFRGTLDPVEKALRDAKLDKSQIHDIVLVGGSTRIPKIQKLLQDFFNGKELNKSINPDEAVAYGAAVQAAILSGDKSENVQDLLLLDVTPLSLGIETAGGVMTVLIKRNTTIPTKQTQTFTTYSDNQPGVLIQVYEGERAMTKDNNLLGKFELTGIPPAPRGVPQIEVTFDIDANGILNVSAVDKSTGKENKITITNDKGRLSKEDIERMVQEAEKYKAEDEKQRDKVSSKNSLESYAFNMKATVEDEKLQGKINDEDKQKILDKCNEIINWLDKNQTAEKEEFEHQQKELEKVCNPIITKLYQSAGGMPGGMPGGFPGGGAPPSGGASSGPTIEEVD

[7] = biological target: T1, Dual specificity protein phosphatase 6
[8] = biological target: T2, Tyrosine-protein phosphatase non-receptor type 7 (Homo sapiens, UniProt P35236); format: functional
T2 sequence (P35236 whole entry): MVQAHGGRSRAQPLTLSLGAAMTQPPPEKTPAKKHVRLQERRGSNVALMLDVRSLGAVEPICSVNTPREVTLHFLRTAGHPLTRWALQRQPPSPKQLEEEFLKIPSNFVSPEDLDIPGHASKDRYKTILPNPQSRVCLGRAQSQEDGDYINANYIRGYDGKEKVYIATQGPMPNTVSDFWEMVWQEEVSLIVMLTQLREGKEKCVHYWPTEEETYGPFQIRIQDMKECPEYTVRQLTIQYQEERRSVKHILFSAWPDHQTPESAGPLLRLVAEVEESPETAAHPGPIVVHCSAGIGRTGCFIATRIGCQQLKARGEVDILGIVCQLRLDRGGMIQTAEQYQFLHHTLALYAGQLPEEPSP

[9] = Counterscreen for IDE inhibitors: Luminescence-based cell-based high throughput dose response assay to identify compounds that are cytotoxic to HEK cells. [Related pubchem assays: 434962 (Primary screen (IDE inhibitors in singlicate)), 449730 (Counterscreen (Cytotoxicity in triplicate)), 435028 (Confirmation (IDE inhibitors in triplicate)) …; format: functional; details: HEK293
Insulin-degrading enzyme = biological target: T3, Insulin-degrading enzyme (Homo sapiens, UniProt P14735); experiment: Dose Response: Fluorescence polarization-based cell-based high throughput dose response assay for inhibitors of insulin-degrading enzyme (IDE). [Related pubchem assays: 434962 (Primary screen (IDE inhibitors in singlicate)), 449730 (Counterscreen (Cytotoxicity in triplicate)), 435028 (Confirmation (IDE inhibitors in triplicate)), 434984 (Summary …; format: functional
T3 sequence (P14735 whole entry): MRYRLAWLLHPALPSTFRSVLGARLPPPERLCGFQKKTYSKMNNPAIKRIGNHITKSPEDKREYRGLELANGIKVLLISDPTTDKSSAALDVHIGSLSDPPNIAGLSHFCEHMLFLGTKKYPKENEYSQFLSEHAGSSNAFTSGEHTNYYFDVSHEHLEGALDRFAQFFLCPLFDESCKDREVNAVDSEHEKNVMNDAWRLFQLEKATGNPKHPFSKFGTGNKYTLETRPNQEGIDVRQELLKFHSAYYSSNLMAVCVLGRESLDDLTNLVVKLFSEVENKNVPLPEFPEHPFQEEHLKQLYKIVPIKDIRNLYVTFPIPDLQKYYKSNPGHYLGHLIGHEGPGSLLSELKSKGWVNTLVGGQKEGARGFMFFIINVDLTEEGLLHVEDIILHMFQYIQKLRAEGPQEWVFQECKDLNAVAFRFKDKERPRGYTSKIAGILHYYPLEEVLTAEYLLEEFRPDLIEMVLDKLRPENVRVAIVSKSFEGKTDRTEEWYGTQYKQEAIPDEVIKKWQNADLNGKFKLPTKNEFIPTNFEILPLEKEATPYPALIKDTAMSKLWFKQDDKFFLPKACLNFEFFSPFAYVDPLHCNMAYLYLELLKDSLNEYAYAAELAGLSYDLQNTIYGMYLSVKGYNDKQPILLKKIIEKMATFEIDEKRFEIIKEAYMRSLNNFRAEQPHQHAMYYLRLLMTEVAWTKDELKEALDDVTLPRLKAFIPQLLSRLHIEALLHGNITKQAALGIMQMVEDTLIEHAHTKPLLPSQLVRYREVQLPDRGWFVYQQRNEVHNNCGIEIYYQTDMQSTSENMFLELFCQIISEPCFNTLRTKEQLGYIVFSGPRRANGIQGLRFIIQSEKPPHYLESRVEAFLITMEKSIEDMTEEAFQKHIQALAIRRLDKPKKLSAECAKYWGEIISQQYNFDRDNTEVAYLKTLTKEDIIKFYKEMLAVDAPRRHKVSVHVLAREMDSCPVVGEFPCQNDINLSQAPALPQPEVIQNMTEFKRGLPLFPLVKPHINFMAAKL

[10] = viability loss in HEK293 cells – cell-based, plate reader, cherry-picked samples, cytotoxicity control, dose response (AID 743446); format: functional
[11] = Luminescence-based counterscreen assay for KLF5 inhibitors: dose response cell-based high throughput screening assay to identify cytotoxic compounds using the IEC-6 intestinal epithelial cell line. [Related pubchem assays: 1700 (Primary screen.), 1834 (Confirmation screen.), 1858 (Summary AID.), 1905 (Counterscreen.)]; format: functional
[12] = blockers of bursicon-stimulated LGR2 cAMP reporter – cell-based, HEK293, CRE-luciferase reporter, cherry pick, set 2, dose response (AID 743343); format: functional;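 further: transfected cells were stimulated with diluted bursicon conditioned medium after compound addition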
HeLa = experiment: viability loss in HeLa cells – cell-based, 24 h, cherry-picked samples, cytotoxicity control, dose response (AID 504726); format: functional; details: Homo sapiens;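 further: potency for cytotoxicity as loss of luminescence signal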
Aminopeptidase N = biological target: T4, Aminopeptidase N (Plasmodium falciparum FcB1/Columbia, UniProt O96935); experiment: malaria alanyl aminopeptidase activity blockers – biochemical, fluorogenic H-Leu-NHMec substrate, 1536-well (AID 1445); parameters: species or system Plasmodium falciparum 3D7, 3D7
T4 sequence (O96935 whole entry): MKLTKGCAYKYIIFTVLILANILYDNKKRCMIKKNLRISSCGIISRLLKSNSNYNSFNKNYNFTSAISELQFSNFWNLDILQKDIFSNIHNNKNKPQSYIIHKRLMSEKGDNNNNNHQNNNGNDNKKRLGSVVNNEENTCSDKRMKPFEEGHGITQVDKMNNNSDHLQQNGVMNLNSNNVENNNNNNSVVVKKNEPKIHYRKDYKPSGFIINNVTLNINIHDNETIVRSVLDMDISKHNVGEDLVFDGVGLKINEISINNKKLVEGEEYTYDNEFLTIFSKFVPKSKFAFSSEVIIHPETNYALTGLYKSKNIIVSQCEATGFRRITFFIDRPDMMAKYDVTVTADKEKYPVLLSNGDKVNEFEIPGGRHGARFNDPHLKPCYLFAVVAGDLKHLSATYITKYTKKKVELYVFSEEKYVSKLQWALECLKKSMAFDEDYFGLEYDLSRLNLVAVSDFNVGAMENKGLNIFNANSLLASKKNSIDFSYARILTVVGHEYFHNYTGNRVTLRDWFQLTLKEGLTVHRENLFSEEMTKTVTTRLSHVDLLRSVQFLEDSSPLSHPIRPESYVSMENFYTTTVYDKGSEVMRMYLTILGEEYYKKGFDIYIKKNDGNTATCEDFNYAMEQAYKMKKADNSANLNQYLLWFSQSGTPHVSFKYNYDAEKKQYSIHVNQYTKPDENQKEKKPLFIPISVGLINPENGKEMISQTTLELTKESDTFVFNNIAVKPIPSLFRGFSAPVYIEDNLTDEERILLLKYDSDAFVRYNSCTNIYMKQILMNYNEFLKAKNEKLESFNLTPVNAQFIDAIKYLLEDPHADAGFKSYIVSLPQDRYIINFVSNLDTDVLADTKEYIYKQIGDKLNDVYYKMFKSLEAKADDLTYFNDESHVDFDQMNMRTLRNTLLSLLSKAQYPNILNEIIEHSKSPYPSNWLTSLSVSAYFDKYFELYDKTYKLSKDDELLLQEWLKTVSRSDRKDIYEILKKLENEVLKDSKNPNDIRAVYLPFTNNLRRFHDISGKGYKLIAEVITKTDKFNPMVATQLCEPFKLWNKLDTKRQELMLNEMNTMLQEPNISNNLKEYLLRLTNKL

[13] = blockade of melanocortin 4 receptor signaling – cell-based, plate reader, cherry pick, counter-screen for LGR2 antagonist project, dose response (AID 743444); format: functional;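 further: transfected HEK 293 cells stimulated with alpha-MSH peptide; potency of inhibitors of the alpha-MSH evoked signal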
[14] = general cell-killing toxicity readout – plate reader, dry powder samples, cytotoxicity control for PAX8 inhibitor project, dose response (AID 743021); format: functional, cell-based
[15] = HIV-1 AD8 envelope cell-cell fusion blockers – cherry-pick, dose response (AID 652062); format: functional, cell-based;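 further: luciferase signal from cell-cell fusion driven by HIV-1 clade B AD8 Env; potency is for inhibitors of fusion seen as a drop in luminescence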
Paired box protein Pax-8 = Paired box protein Pax-8 (Homo sapiens, UniProt Q06710); experiment: PAX8 transcriptional activity inhibition in RMG-I – RMG-I cells, luciferase, cherry-pick, dose response (AID 687027); format: functional, cell-based;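 further: luciferase reporter driven by Pax8 target thyroperoxidase promoter measured by SteadyGlo luminescence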
Sequence of Paired box protein Pax-8 (Q06710 whole entry, the tested form may be a part): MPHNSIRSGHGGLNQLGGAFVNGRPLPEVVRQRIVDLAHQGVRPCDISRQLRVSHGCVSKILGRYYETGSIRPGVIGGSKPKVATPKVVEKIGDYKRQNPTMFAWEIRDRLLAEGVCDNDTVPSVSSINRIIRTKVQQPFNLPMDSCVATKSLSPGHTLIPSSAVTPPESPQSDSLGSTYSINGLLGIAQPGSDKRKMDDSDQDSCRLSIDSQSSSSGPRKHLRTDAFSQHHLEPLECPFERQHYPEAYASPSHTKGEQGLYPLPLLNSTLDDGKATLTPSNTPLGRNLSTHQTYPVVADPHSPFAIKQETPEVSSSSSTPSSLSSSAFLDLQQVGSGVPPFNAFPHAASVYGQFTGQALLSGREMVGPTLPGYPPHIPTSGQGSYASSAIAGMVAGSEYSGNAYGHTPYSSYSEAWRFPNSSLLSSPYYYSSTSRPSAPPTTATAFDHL

[16] = off-target signal loss in HeLa-CEM21 co-culture – HeLa F-luc CTL cells, cherry-picked, counter-screen for HIV-1 Env fusion inhibitor project, dose response (AID 652040); format: functional, cell-based;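 further: potency for signal decrease marking cytotoxic or nonspecific inhibition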
[17] = blockers of HIV-1 ZM109 envelope-driven cell-cell fusion – HeLa effector, CEM target cells, luciferase, cherry-pick, dose response (AID 652058); format: functional, cell-based;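 further: luciferase signal from HIV-1 Env mediated cell-cell fusion of effector and target cells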
[18] = biological target: T5, Microphthalmia-associated transcription factor (Homo sapiens, UniProt O75030); experiment: reducers of TRPM1 reporter luminescence, concentration series – cell-based, SK-MEL-5, cherry-picked, set 3, MITF inhibitor project, dose response (AID 493073); format: functional;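 further: SK-MEL-5 melanoma cells with luciferase driven by the MITF target TRPM1 promoter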
T5 sequence (O75030 whole entry): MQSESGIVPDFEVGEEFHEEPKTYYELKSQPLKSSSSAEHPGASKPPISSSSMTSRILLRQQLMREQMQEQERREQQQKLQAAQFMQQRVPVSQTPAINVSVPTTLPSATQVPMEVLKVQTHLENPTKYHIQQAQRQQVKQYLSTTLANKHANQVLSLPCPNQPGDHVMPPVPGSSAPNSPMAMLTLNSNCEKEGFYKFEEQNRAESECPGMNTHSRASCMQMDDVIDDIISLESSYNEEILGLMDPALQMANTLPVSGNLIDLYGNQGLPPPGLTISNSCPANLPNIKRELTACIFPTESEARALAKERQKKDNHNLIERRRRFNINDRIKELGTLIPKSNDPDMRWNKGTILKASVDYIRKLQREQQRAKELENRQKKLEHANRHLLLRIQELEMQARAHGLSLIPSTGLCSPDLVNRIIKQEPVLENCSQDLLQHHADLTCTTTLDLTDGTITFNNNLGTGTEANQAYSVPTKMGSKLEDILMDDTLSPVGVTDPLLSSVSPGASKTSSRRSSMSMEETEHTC

[19] = blockers of HIV-1 envelope-mediated cell-cell fusion – cherry-pick, dose response (AID 652057); format: functional, cell-based
[20] = biological target: FAD-linked sulfhydryl oxidase ALR (Homo sapiens, UniProt P55789); experiment: ALR-catalysed DTT oxidation blockers – biochemical, H2O2 detection, luminescence, cherry-pick, dose response (AID 493248)
Sequence of FAD-linked sulfhydryl oxidase ALR (P55789 whole entry): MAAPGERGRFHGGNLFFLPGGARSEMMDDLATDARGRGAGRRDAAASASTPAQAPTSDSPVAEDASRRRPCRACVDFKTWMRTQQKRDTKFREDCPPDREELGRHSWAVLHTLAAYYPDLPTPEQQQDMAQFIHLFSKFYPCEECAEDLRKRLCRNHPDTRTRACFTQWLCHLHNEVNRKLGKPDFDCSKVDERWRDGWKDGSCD

Cc1ccc2c(c1)C1C=CCC1C(C(=O)O)N2 (configuration not stated)
IC50 [1]: > 10 µM (not active) | IC50 [2]: > 54 µM (active) | IC50 [3]: 5.44 µM (active) | IC50 [4]: 4.77 µM (active) | IC50 (Large T antigen): 9.1 µM (active) | IC50 [5]: 70.7 µM (active) | IC50 (NS3): 37.5 µM (inactive) | IC50 [6]: > 100 µM (not active) | IC50 [7]: 8 µM (active) | IC50 [8]: 15.6 µM (active)

COc1cc(-c2cc(=O)c3ccccc3o2)ccc1O
IC50 [9]: > 55.6 µM (not active) | IC50 (Insulin-degrading enzyme): > 6.21 µM (active) | IC50 (Large T antigen): 9.46 µM (active)

Nc1ccc(-c2nc3ccc(C(=O)O)cc3s2)cc1
AC50 [10]: 48.6 µM (active) | IC50 [11]: > 39.8 µM (not active) | AC50 [12]: 0.749 µM (active) | AC50 (HeLa): 313 µM (active) | IC50 (Aminopeptidase N): 25.7 µM (active) | AC50 [13]: 0.649 µM (active) | AC50 [14]: 30.4 µM (active) | AC50 [15]: 1.6 µM (active) | AC50 (Paired box protein Pax-8): 2.6 µM (active) | AC50 [16]: 1.91 µM (active) | AC50 [17]: 4.57 µM (active) | AC50 [18]: 0.866 µM (active) | AC50 [19]: 1.03 µM (active) | AC50 [20]: 0.839 µM (active)

Source: ChEMBL document CHEMBL1201862, “PubChem BioAssay data set” (2004)
